# Entries after “also recorded” stand apart in the source; their conditions may differ.
# What was measured:
# zebrafish larvae [1] = test: Zebrafish MPP+ model, sleep parameters; type: in vivo; conditions: co-incubation with MPP+
# Experimental: (§1) Six groups were included in each experiment. Immediately after spawning, 40 embryos per group were allocated to a 24-well plate and system water (solvent) was added to all wells. For assessment of neuroprotective potential, Compound 4 was added for a final concentration of 1, 10 and 20 µM (column 4-6). From the following day at 24 hpf, Compound 4 was co-incubated with 500 µM MPP+. MPP+ was prepared immediately prior to incubation and solutions were changed daily. At 120 hpf, drug treatment and MPP+ exposure was ceased and a 3X wash was performed with system water. Larvae were then relocated to 96-well plates for behavioral recording and placed in a separate recording room for 24-hour acclimation. Prior to behavioral recording, wells were fully replenished system water.
# (§2) Naive group was exposed to solvent only. Vehicle group was exposed to solvent and vehicle corresponding to the vehicle of 20 µM drug solution (0.02% DMSO). MPP+ positive control was exposed to solvent and 500 µM MPP+. All compound groups were treated with the respective vehicle and respective concentration of compound 4.
# Behavioral data was recorded from 1 p.m. on 6 dpf until shortly after wakening on 7 dpf. The recording consisted of a photomotor assay in which lights switch off and on in 30-minute intervals between 1 p.m. and 6 p.m., producing a consistent photomotor response. […]
# [2] = tested on: STHdh 111/111 striatal cells; test: Cell viability (CellTiter Glo) of heat shocked STHdh 111/111 striatal cells; type: cell-based, mouse; conditions: Mus musculus, STHdh 111/111; 10 µM; 48 hours treatment; read-out: Cell Viability striatal cells 3h heat shocked
# Experimental: Cell culture - ST HDH Q111/111 (CH00095, Coriell Institute) striatal derived cell line were grown at 33° C. in DMEM (Sigma-Aldrich), supplemented with 10% fetal bovine serum (FBS), 1% Penicillin-Streptomycin (ThermoFisher Scientific), and 0.4 mg/ml G418 (Geneticin; Invitrogen). ST HDH Q111/111 are mouse striatal cells with polyQ length of 1111.
# (§4) Pre-Treatment of striatal cell line - First the medium was removed and new DMEM (DMEM, high glucose, HEPES, no phenol red) medium, supplemented with 10% fetal bovine serum (FBS), 1% Penicillin-Streptomycin, containing 10 µM compound was added. The cells were incubated at 33° C. for 24 hours.
# (§5) Heat shock - Cells were heat shocked for 3 hours at 41° C.
# (§6) Treatment - Medium was removed and new DMEM (DMEM, high glucose, HEPES, no phenol red) medium, supplemented with 1% fetal bovine serum (FBS), 1% Penicillin-Streptomycin, containing 10 µM compound was added. The cells were incubated at 33° C. for 48 hours.
# Cell Viability - Cell viability was measured according to manufacturer recommendations with CellTiter Glo (Promega). 96-well plates for used either for cell viability determination or cell staining.
# [3] = Pharmacokinetics, plasma and brain concentration by UHPLC-TOF; type: in vivo, mice; conditions: mouse, in vivo
# Experimental: Compound 22 is an analog of Compound 7. […] Compound 22 pharmacokinetic properties was measured in three male CD1 mice at several timepoints. Compound 22 was dissolved in 10% DMSO, 10%, cremaphor, and 80% saline. The tested dose was 33.3 mg/kg body weight. Brain tissue was homogenized and protein precipitated with acetonitrile. […] As such, Compound 22 was selected for testing in an animal model of HD the R6/2 model. As described below, Compound 22 and its analogs were further tested for their effects on striatal cell viability and effects of mHTT levels.
# phospho-Tau (Ser396) = test: Phospho-Tau (Ser396) levels in STHdh 7/7 cells by immunocytochemistry; type: cell-based, mouse
# Experimental: (§3) Effect of Compound 4 on Phospho-Tau (Ser396) levels - ST HDH Q7/7 (CH00097, Coriell Institute) striatal derived cell line from a knock in transgenic mouse containing HTT loci with a humanized Exon 1 containing 7 polyglutamine repeats. Immunocytochemistry was conducted as described in Example 33 with the exception that instead of 3B5H10 antibody for staining mHTT, phospho-Tau (Ser396) polyclonal antibody (ThermoFisher, Catalog 44-752G) was used to stain phospho-Tau (Ser396).
# STHdh 111/111 = test: Morphology of striatal cells expressing mutated huntingtin; type: cell-based, mouse; conditions: versus not treated STHdh 111/111
# zebrafish larvae [4] = test: Zebrafish MPP+ motility model, photomotor assay; type: in vivo
# Experimental: MPP+ selectively targets dopaminergic neurons; the putative mechanism is induction of K+ efflux, cell membrane hyperpolarization and inhibition of neuronal firing. This ultimately leads to an inhibition of complex I, a decrease in ATP production and promotion of the generation of reactive oxygen species upon accumulation in the mitochondria (3). The observed phenotype following exposure to 500 µM from 24 hours post fertilization (hpf) to 120 hpf is characterized by a decrease in movement during lights-on phases of a photomotor assay. In unpublished data below, representative locomotor perturbations of the distance moved and movement frequency is shown.
# as §1, §2
# Behavioral data was recorded from 1 p.m. on 6 dpf until shortly after wakening on 7 dpf. The recording consisted of a photomotor assay in which lights switch off and on in 30-minute intervals between 1 p.m. and 6 p.m., producing a consistent photomotor response. […] Upon lights being turned on again, the larvae cease movement followed by a return to baseline. This cycle is repeated five times. Following the last lights-off phase, constant illumination is presented until lights turn off at 10 p.m. for the night. Lights turn on again at 8 a.m. the following day.
# Average movement frequency was measured during 30-minute lights-on phases of photomotor assay. Movement bouts were defined as initiated when velocity exceeded a threshold of 2 mm/s and ceased when velocity fell below 1 mm/s.
# Distance moved (mm) was defined as the average distance moved during 30-minute lights-on phases of photomotor assay.
# Data was obtained using EthoVision XT (Version 11.5.2016, Noldus) and exported to Microsoft Excel for data analysis. […]
# Exon1 Q46 = test: Circular dichroism of Exon1 Q46, predominantly α-helical state; type: biochemical; conditions: Exon1 Q46; conc. compound 0.647 µM
# Experimental: Protein samples were diluted with buffer to 7.5 µM prior to Circular Dichroism (CD) measurements. Measurements were conducted at room temperature.
# Four spectra at each measurement were taken every 1 nm from 200 to 260 nm, scanning at 50 nm/min with an averaging time of 1 sec. Spectra were obtained from samples in 20 mM phosphate, pH 7.4. Ten scans were averaged for each sample spectrum
# Single-wavelength readings at 222 nm were obtained. After subtraction of the Trx contribution, the α-helical content of Httex1 was estimated from its mean residue ellipticity (MREHttex1) at 222 nm. This calculation was conducted as described by Bravo-Arredondo (Bravo-Arredondo, J.M. et al., J Biol Chem. 2018 Dec 21;293(51):19613-19623).
# MRE Exon-1 […] and Q46 (Mean Residue Ellipticity) was measured every 1 sec for 300 sec; the 301 readings for each sample were averaged and MRE Trx subtracted. The number of amino acids in each sample to experience a change in helicity was estimated using a previously developed helix-coil transition model, which gave the change in fraction of helicity (ΔfHelix) by the following equation: […]
# where MRE Exon1 Q26 or Q46 (MREHttex1 in the formula) describes the helix-coil transition, obtained from the difference between MRE Eon1 Q26 or Q46 at 222 nm of the fusion protein at the given temperature (in our case 37° C.) and the product of MRE Trx at 222 nm at the same temperature and the fraction of residues comprised by Trx in that particular construct, and
# In order to calculate an equilibrium of the two states model, percent α-helicity was calculated using the relation of MREHttex1 = 0 and -34700 (deg cm^2 dmol^-1) for 0% and 100% helicity, respectively.
# The CD measurements protocol for Compound 101 was the same as outlined above except that from 206 nm - 210 nm and 220 nm - 224 nm, the step size was 0.2 nm, and the bandwidth was 1 nm.
# mHTT = mHTT (Mus musculus, UniProt P42859, DEL28-30/G47A/INS49LLPQPQPP/INS60VA/L56P/P40L); test: Diffuse mHTT levels in heat shocked STHdh 111/111 striatal cells by immunocytochemistry
# Chain of mHTT (P42859 with tags, fused parts or gaps DEL28-30/P40L/G47A/INS49LLPQPQPP/L56P/INS60VA): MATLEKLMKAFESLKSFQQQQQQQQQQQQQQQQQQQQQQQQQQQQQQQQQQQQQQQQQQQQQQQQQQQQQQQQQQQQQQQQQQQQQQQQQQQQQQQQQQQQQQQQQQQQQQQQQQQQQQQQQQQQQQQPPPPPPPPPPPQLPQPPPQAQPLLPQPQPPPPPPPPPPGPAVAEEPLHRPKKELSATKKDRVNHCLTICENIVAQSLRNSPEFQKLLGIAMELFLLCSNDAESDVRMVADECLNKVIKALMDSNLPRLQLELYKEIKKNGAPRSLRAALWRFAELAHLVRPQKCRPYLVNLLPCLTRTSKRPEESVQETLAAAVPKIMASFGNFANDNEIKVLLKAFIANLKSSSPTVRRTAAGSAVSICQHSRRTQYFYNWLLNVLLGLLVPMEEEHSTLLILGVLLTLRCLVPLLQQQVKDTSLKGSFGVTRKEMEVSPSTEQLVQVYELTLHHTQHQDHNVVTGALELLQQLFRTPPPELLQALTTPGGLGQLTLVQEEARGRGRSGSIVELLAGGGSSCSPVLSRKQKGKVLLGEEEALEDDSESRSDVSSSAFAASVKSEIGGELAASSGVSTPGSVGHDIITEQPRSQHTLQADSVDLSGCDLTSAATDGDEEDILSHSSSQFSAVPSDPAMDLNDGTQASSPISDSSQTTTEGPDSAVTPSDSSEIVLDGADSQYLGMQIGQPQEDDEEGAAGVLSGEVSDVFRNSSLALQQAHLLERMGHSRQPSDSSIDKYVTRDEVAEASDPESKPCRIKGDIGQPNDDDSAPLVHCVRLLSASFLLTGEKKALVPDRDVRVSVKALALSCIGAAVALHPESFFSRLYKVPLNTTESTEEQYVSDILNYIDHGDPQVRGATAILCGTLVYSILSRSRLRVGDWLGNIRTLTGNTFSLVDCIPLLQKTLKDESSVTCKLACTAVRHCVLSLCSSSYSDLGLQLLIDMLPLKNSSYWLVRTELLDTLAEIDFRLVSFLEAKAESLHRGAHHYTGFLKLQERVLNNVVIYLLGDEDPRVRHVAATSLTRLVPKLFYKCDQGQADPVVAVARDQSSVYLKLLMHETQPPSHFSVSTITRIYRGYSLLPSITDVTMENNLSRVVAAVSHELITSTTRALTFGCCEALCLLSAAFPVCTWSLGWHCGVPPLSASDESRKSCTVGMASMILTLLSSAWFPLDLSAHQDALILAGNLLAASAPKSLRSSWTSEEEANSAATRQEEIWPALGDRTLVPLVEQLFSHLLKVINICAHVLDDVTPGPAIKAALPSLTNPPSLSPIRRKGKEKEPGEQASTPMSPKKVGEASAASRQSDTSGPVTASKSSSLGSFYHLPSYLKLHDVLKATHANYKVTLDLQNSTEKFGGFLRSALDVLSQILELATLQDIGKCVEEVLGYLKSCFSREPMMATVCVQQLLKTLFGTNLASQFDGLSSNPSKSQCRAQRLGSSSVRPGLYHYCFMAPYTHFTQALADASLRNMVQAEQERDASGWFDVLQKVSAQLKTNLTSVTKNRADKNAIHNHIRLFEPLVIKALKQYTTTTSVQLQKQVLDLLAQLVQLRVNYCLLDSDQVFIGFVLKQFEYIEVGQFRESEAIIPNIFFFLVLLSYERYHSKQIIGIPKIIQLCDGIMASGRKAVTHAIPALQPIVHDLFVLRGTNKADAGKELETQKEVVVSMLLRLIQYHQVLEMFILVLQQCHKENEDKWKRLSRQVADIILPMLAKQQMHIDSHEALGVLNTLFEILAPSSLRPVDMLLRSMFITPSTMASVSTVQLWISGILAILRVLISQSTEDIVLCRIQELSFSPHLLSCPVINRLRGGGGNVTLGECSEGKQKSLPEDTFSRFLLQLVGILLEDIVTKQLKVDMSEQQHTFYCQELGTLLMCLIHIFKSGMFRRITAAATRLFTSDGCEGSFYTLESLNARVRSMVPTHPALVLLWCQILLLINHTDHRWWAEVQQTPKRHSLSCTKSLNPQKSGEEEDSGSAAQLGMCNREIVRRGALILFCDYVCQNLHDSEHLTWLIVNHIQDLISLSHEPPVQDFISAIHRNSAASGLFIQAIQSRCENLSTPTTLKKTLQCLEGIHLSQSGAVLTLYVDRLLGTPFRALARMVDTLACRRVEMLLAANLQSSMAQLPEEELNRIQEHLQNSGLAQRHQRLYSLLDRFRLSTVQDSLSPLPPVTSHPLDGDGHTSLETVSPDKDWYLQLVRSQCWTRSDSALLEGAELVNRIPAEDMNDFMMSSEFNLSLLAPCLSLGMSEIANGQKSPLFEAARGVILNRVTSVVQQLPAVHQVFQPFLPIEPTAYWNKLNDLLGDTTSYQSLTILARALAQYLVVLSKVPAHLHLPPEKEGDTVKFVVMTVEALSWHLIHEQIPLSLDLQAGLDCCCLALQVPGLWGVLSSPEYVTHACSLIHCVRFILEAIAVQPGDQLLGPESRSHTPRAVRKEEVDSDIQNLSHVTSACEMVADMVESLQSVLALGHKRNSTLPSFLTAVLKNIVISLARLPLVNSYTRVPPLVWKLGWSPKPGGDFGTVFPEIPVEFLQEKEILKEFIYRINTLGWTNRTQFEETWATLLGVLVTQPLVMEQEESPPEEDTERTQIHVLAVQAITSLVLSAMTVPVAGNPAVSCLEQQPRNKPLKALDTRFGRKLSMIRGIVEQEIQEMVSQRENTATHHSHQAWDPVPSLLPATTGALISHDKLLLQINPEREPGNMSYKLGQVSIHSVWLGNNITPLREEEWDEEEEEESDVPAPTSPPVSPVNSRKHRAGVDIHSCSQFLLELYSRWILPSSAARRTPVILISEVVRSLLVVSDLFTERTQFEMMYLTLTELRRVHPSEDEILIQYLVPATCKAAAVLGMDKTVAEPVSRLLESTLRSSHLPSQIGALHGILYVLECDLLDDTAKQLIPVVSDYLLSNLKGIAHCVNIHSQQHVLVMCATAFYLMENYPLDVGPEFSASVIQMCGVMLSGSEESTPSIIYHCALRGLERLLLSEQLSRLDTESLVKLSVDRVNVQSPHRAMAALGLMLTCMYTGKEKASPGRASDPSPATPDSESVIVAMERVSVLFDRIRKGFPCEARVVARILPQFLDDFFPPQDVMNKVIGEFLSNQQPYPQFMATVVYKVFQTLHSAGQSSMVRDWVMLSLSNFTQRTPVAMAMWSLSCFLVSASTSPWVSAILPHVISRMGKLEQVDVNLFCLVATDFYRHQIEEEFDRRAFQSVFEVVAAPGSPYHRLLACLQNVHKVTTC
# Experimental: as §4, §5, §6
# Staining - Cells were permeabilized with 0.3% Triton X-100 in 4° C. PBS (pH 7.4 from ThermoFisher) for 10 minutes. Then the cells were washed two times with 4° C. PBS. Subsequently, cells are blocked with 3% NGS (normal goat serum from Thermo Fisher) in 4° C. PBS for 1 hour. Cells were incubated with primary antibodies in blocking buffer (PBS, 3% NGS, 0.02% NaN3) over night at 4° C. Primary antibodies were mouse antipolyglutamine monoclonal antibody 3B5H10 (Sigma-Aldrich) at 1:250 dilution and Guinea Pig anti-MAP2 polyclonal antibody (Synaptic Systems) at 1:500 dilution. 3B5H10 binds to diffuse mHTT. Diffuse mHTT is a monomeric and small oligomeric mHTT.
# Cells were washed 2 times with 4° C. PBS, and then incubated with secondary antibodies at 1:2000 dilution in blocking buffer for 1 hour at room temperature. […] Cells were washed 2 times with 4° C. PBS, and then the nuclei were counterstain with DAPI (ThermoFisher) for 10 min at room temperature in the dark. Cells were washed 2 times with 4° C. PBS, and then 4° C. PBS was added to cells and then images were acquired.
# Fluorescence Imaging - Imaging sessions were performed on a confocal microscope system (Carl Zeiss Microscopy) equipped with a dual spinning disk unit (Yokogawa). All components of the imaging system were controlled via the ZEN 2 software suite (Carl Zeiss Microscopy). The laser lines used were 405 nm, 488 nm and 639 nm to excite DAPI or the respective fluorophores. […] Nested t test was performed to calculate the significance amongst repeated measurements using GraphPad Prism software.
# EC 50 value was determined with non-linear regression.
# phospho-Tau (Ser404) = test: Phospho-Tau (Ser404) levels in STHdh 7/7 cells by immunocytochemistry; type: cell-based, mouse
# Text: as §3, with “repeats. Diffuse mHTT quantified with immunocytochemistry” for “repeats. Immunocytochemistry was conducted”, “phospho-Tau (Ser404)” for “phospho-Tau (Ser396)”, “Catalog 44-758G)” for “Catalog 44-752G)”, “phospho-Tau (Ser396) and no heat shock was used.” for “phospho-Tau (Ser396).”
# [5] = 1, 10 and 20 µM with 500 µM MPP+
smiles,measurement,setting,value
"CCc1c(C)[nH]c2ccc(C(=O)NCCN(CC)CC)cc12 [Compound 4, N-(2-(diethylamino)ethyl)-3-ethyl-2-methyl-1H-indole-5-carboxamide]","sleep parameters (sleep fragmentation, sleep ratio, velocity, wake bout duration, sleep bout duration)",zebrafish larvae [1],No statistically significant difference; also recorded: does neither reduce nor increase sleep
same,viability at 10 µM,[2],125%
same,crossing of the blood brain barrier,[3],can cross the blood brain barrier
same,Phospho-Tau (Ser396) reduced by,"phospho-Tau (Ser396); STHdh 7/7, 10 µM, in comparison to untreated cells",26.3%
same,Phospho-Tau (Ser396) reduction,"phospho-Tau (Ser396); STHdh 7/7 exposed to 10 mM ammonium chloride, 5 µM",could not reduce
same,Phospho-Tau (Ser396) reduction,"phospho-Tau (Ser396); STHdh 7/7 exposed to ammonium chloride, 10 µM",15.2%
same,morphology of STHdh 111/111,STHdh 111/111,"improved cell viability, dendrite outgrowth and increased cell size"
same,"distance moved, drug treatment groups compared to MPP+",zebrafish larvae [4]; [5],no significant difference
same,"movement frequency, drug treatment groups compared to MPP+",zebrafish larvae [4]; [5],no significant difference
same,overall movement during assessment of neuroprotection,zebrafish larvae [4]; concentrations ~10 µM and ~1 µM with MPP+,subtle increase in overall movement
same,Fraction Helix fH (%),Exon1 Q46,20.0%
same,EC50,mHTT,130 nM
same,Diffuse mHTT reduced by,"mHTT; STHdh 111/111, in comparison to untreated cells",68%
same,Phospho-Tau (Ser404) reduced by,"phospho-Tau (Ser404); STHdh 7/7, 10 µM, no heat shock, in comparison to untreated cells",40%
same,Phospho-Tau (Ser404) reduction,phospho-Tau (Ser404); STHdh 7/7 exposed to 10 mM ammonium chloride,could not reduce

# Source: patent publication US20230218573A1, “INDOLE COMPOUNDS FOR THE TREATMENT OF NEURODEGENERATIVE DISEASES” (GALYAN BIO, INC., priority 2020, published 2023)
